These results are taken from US10533010B2, “Substituted indole Mcl-1 inhibitors” (Vanderbilt University, priority 2014, dated 2020).

pKi: −log10 of the molar value. Read-outs that look alike come from different tables or passages of the source.

By Ki is commonly meant a measure of affinity in units of concentration, obtained from inhibition or displacement. A word on the pKi: it is the Ki on a negative log10 scale, so that one unit is a factor of ten.

The target in this assay is recombinant Mcl-1 (residues 172-327) (Homo sapiens (Human), UniProt Q07820). Put plainly: Fluorescence polarization anisotropy competition assay (FITC-Bak or FITC-Bim BH3 peptide) with Mcl-1. The class given is binding. Particulars: for Ki: Table 2, FITC-Bak or FITC-Bim peptide competition, Ki converted from IC50, read-out: Ki for Inhibition of Mcl-1. For orientation: Fluorescence polarisation rises when a labelled molecule tumbles more slowly, as on binding a larger partner.
Chain of recombinant Mcl-1 (residues 172-327) (Q07820 172-327): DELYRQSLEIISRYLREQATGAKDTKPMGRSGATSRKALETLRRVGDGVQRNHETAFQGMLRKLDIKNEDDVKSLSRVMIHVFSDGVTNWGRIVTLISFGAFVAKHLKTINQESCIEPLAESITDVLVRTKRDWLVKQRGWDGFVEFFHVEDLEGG

Regarding `Cc1cc(OCCCc2c(C(=O)NCCS(=O)(=O)NC(=O)C34CC5CC(CC(C5)C3)C4)[nH]c3ccccc23)cc(C)c1Cl` [I-55, N-(2-(N-((3r,5r,7r)-adamantane-1-carbonyl)sulfamoyl)ethyl)-3-(3-(4-chloro-3,5-dimethylphenoxy)propyl)-1H-indole-2-carboxamide], the Ki (Ki bins given in nM) lay within 301 to 500 nM. Turning to `CCOC(=O)c1ccc(CNC(=O)c2[nH]c3ccccc3c2CCCOc2cc(C)c(Cl)c(C)c2)o1` [I-56, ethyl 5-((3-(3-(4-chloro-3,5-dimethylphenoxy)propyl)-1H-indole-2-carboxamido)methyl)furan-2-carboxylate], for the setting “Ki bins given in μM”, the Ki fell in the range of 1000 to 9990 nM. As for `Cc1cc(OCCCc2c(C(=O)NCc3ccc(C(=O)O)o3)[nH]c3ccccc23)cc(C)c1Cl` [I-57, 5-((3-(3-(4-chloro-3,5-dimethylphenoxy)propyl)-1H-indole-2-carboxamido)methyl)furan-2-carboxylic acid], the pKi was 7.00 to 7.29. `Cc1cc(OCCCc2c(C(=O)NCc3ccc(C(=O)NCc4ccccc4C(F)(F)F)o3)[nH]c3ccccc23)cc(C)c1Cl` [I-58, 3-(3-(4-chloro-3,5-dimethylphenoxy)propyl)-N-((5-((2-(trifluoromethyl)benzyl)carbamoyl)furan-2-yl)methyl)-1H-indole-2-carboxamide]: under “Ki bins given in nM”, the inhibition constant (Ki) is 101 to 299 nM.

For the molecule `Cc1cc(OCCCc2c(C(=O)NCc3ccc(C(=O)NS(C)(=O)=O)o3)[nH]c3ccccc23)cc(C)c1Cl` [I-59, 3-(3-(4-chloro-3,5-dimethylphenoxy)propyl)-N-((5-((methylsulfonyl)carbamoyl)furan-2-yl)methyl)-1H-indole-2-carboxamide], the inhibitory constant (Ki) (Ki bins given in nM) was 101 to 299 nM.

Take `Cc1cc(OCCCc2c(C(=O)NCc3ccc(C(=O)NS(=O)(=O)c4ccccc4)o3)[nH]c3ccccc23)cc(C)c1Cl` [I-60, 3-(3-(4-chloro-3,5-dimethylphenoxy)propyl)-N-((5-((phenylsulfonyl)carbamoyl)furan-2-yl)methyl)-1H-indole-2-carboxamide]: for the setting “Ki bins given in nM”, the inhibitory constant (Ki) lay within 101 to 299 nM. `CCOC(=O)c1ccc(CNC(=O)c2[nH]c3c(-c4c(C)n[nH]c4C)cccc3c2CCCOc2cc(C)c(Cl)c(C)c2)o1` [I-61, ethyl 5-((3-(3-(4-chloro-3,5-dimethylphenoxy)propyl)-7-(3,5-dimethyl-1H-pyrazol-4-yl)-1H-indole-2-carboxamido)methyl)furan-2-carboxylate]: the Ki (Ki bins given in μM) lay within 10000 to 50000 nM. As to `Cc1cc(OCCCc2c(C(=O)NCc3ccc(C(=O)O)o3)[nH]c3c(-c4c(C)n[nH]c4C)cccc23)cc(C)c1Cl` [I-62, 5-((3-(3-(4-chloro-3,5-dimethylphenoxy)propyl)-7-(3,5-dimethyl-1H-pyrazol-4-yl)-1H-indole-2-carboxamido)methyl)furan-2-carboxylic acid], the inhibition constant Ki (Ki bins given in nM) is less than 50 nM. For the molecule `Cc1cc(OCCCc2c(C(=O)NCc3cccc(C(=O)NCc4ccccc4)c3)[nH]c3c(-c4c(C)n[nH]c4C)cccc23)cc(C)c1Cl` [I-64, N-(3-(benzylcarbamoyl)benzyl)-3-(3-(4-chloro-3,5-dimethylphenoxy)propyl)-7-(3,5-dimethyl-1H-pyrazol-4-yl)-1H-indole-2-carboxamide], the Ki (Ki bins given in μM) was 10000 to 50000 nM. As for `CCOC(=O)c1ccc(CNC(=O)c2c(CCCOc3cc(C)c(Cl)c(C)c3)c3cccc(-c4c(C)nn(C)c4C)c3n2C)o1` [I-65, ethyl 5-((3-(3-(4-chloro-3,5-dimethylphenoxy)propyl)-1-methyl-7-(1,3,5-trimethyl-1H-pyrazol-4-yl)-1H-indole-2-carboxamido)methyl)furan-2-carboxylate], the Ki (Ki bins given in nM) is 301 to 500 nM.

As for `Cc1cc(OCCCc2c(C(=O)NCc3ccc(C(=O)O)o3)n(C)c3c(-c4c(C)nn(C)c4C)cccc23)cc(C)c1Cl` [I-66, 5-((3-(3-(4-chloro-3,5-dimethylphenoxy)propyl)-1-methyl-7-(1,3,5-trimethyl-1H-pyrazol-4-yl)-1H-indole-2-carboxamido)methyl)furan-2-carboxylic acid], the inhibitory constant (Ki) is, setting by setting: (Ki bins given in nM) less than 50 nM; (Ki bins given in μM) 10000 to 50000 nM. Regarding `Cc1cc(OCCCc2c(C(=O)NC3CCN(C(=O)c4cccc(Oc5ccccc5)c4)CC3)[nH]c3ccccc23)cc(C)c1Cl` [I-67, 3-(3-(4-chloro-3,5-dimethylphenoxy)propyl)-N-(1-(3-phenoxybenzoyl)piperidin-4-yl)-1H-indole-2-carboxamide], the inhibition constant (Ki) (Ki bins given in nM) was 501 to 999 nM. On the same count and under the same terms, as for `Cc1cc(OCCCc2c(C(=O)Nc3cccc(C(=O)NS(=O)(=O)c4ccc([N+](=O)[O-])cc4)c3)[nH]c3c(-c4cccnc4C)cccc23)cc(C)c1Cl` [I-68, 3-(3-(4-chloro-3,5-dimethylphenoxy)propyl)-7-(2-methylpyridin-3-yl)-N-(3-(((4-nitrophenyl)sulfonyl)carbamoyl)phenyl)-1H-indole-2-carboxamide], the figure is 51 to 100 nM; as for `Cc1cc(OCCCc2c(C(=O)Nc3ccc(C(=O)NS(=O)(=O)c4ccc([N+](=O)[O-])cc4)cc3)[nH]c3c(-c4cccnc4C)cccc23)cc(C)c1Cl` [I-69, 3-(3-(4-chloro-3,5-dimethylphenoxy)propyl)-7-(2-methylpyridin-3-yl)-N-(4-(((4-nitrophenyl)sulfonyl)carbamoyl)phenyl)-1H-indole-2-carboxamide], 101 to 299 nM.

As for `CC/N=C(/NCCCN(C)C)n1nc(C)c(-c2cccc3c(CCCOc4cc(C)c(Cl)c(C)c4)c(C(=O)NCc4cccc(C(=O)O)c4)[nH]c23)c1C` [I-70, 3-((3-(3-(4-chloro-3,5-dimethylphenoxy)propyl)-7-(1-(N-(3-(dimethylamino)propyl)-N′-ethylcarbamimidoyl)-3,5-dimethyl-1H-pyrazol-4-yl)-1H-indole-2-carboxamido)methyl)benzoic acid], for the setting “Ki bins given in nM”, the Ki is 51 to 100 nM.

With `Cc1cc(OCCCc2c(C(=O)NCc3ccc(N4CCCCC4)c(C(=O)O)c3)[nH]c3c(-c4c(C)nn(C)c4C)cccc23)cc(C)c1Cl` [I-73, 5-((3-(3-(4-chloro-3,5-dimethylphenoxy)propyl)-7-(1,3,5-trimethyl-1H-pyrazol-4-yl)-1H-indole-2-carboxamido)methyl)-2-(piperidin-1-yl)benzoic acid], for the setting “Ki bins given in nM”, the inhibition constant (Ki) was 301 to 500 nM. Consider `Cc1cc(OCCCc2c(C(=O)NCc3cc(C(=O)O)n(Cc4ccccc4)c3)[nH]c3c(-c4c(C)nn(C)c4C)cccc23)cc(C)c1Cl` [I-75, 1-benzyl-4-((3-(3-(4-chloro-3,5-dimethylphenoxy)propyl)-7-(1,3,5-trimethyl-1H-pyrazol-4-yl)-1H-indole-2-carboxamido)methyl)-1H-pyrrole-2-carboxylic acid], for which the Ki (Ki bins given in nM) was 51 to 100 nM.

For the molecule `Cc1cc(OCCCc2c(C(=O)NCc3ccc(N4CCCC4)c(C(=O)O)c3)[nH]c3c(-c4c(C)nn(C)c4C)cccc23)cc(C)c1Cl` [I-76, 5-((3-(3-(4-chloro-3,5-dimethylphenoxy)propyl)-7-(1,3,5-trimethyl-1H-pyrazol-4-yl)-1H-indole-2-carboxamido)methyl)-2-(pyrrolidin-1-yl)benzoic acid], the Ki (Ki bins given in nM) fell in the range of 51 to 100 nM. Still for that read-out and setting: next, `Cc1cc(OCCCc2c3n(c4c(-c5c(C)nn(C)c5C)cccc24)CCCN(Cc2cc(C(=O)O)n(Cc4ccccc4)c2)C3=O)cc(C)c1Cl` [I-77, 1-benzyl-4-((1-(3-(4-chloro-3,5-dimethylphenoxy)propyl)-1-oxo-7-(1,3,5-trimethyl-1H-pyrazol-4-yl)-4,5-dihydro-1H-[1,4]diazepino[1,2-a]indol-2(3H)-yl)methyl)-1H-pyrrole-2-carboxylic acid]: 51 to 100 nM. Same read-out and setting: as for `Cc1cc(OCCCc2c3n(c4c(-c5c(C)nn(C)c5C)cccc24)CCCN(Cc2ccc(N4CCCC4)c(C(=O)O)c2)C3=O)cc(C)c1Cl` [I-78, 5-((11-(3-(4-chloro-3,5-dimethylphenoxy)propyl)-1-oxo-7-(1,3,5-trimethyl-1H-pyrazol-4-yl)-4,5-dihydro-1H-[1,4]diazepino[1,2-a]indol-2(3H)-yl)methyl)-2-(pyrrolidin-1-yl)benzoic acid], the figure is 101 to 299 nM; as for `Cc1cc(OCCCc2c3n(c4c(-c5c(C)nn(C)c5C)cccc24)CCCN(Cc2cc(C(=O)O)n(C)c2)C3=O)cc(C)c1Cl` [I-79, 4-((11-(3-(4-chloro-3,5-dimethylphenoxy)propyl)-1-oxo-7-(1,3,5-trimethyl-1H-pyrazol-4-yl)-4,5-dihydro-1H-[1,4]diazepino[1,2-a]indol-2(3H)-yl)methyl)-1-methyl-1H-pyrrole-2-carboxylic acid], 51 to 100 nM.

On to `Cc1cc(OCCCc2c3n(c4c(-c5c(C)nn(C)c5C)cccc24)CCCN(Cc2ccc(N4CCCCC4)c(C(=O)O)c2)C3=O)cc(C)c1Cl` [I-81, 5-((11-(3-(4-chloro-3,5-dimethylphenoxy)propyl)-1-oxo-7-(1,3,5-trimethyl-1H-pyrazol-4-yl)-4,5-dihydro-1H-[1,4]diazepino[1,2-a]indol-2(3H)-yl)methyl)-2-(piperidin-1-yl)benzoic acid], for which the inhibitory constant (Ki) (Ki bins given in nM) lay within 51 to 100 nM. Regarding `Cc1cc(OCCCc2c3n(c4c(-c5c(C)nn(C)c5C)cccc24)CCCN(Cc2ccc(C(=O)O)cc2)C3=O)cc(C)c1Cl` [I-83, 4-((11-(3-(4-chloro-3,5-dimethylphenoxy)propyl)-1-oxo-7-(1,3,5-trimethyl-1H-pyrazol-4-yl)-4,5-dihydro-1H-[1,4]diazepino[1,2-a]indol-2(3H)-yl)methyl)benzoic acid], the Ki (Ki bins given in nM) is less than 50 nM. Still for that read-out and setting: as for `Cc1cc(OCCCc2c3n(c4c(-c5c(C)nn(C)c5C)cccc24)CCCN(Cc2cc(C(=O)O)cc(N4CCCC4)c2)C3=O)cc(C)c1Cl` [I-84, 3-((11-(3-(4-chloro-3,5-dimethylphenoxy)propyl)-1-oxo-7-(1,3,5-trimethyl-1H-pyrazol-4-yl)-4,5-dihydro-1H-[1,4]diazepino[1,2-a]indol-2(3H)-yl)methyl)-5-(pyrrolidin-1-yl)benzoic acid], the figure is 101 to 299 nM. The same measure, in the same setting: as for `Cc1cc(OCCCc2c3n(c4c(-c5c(C)nn(C)c5C)cccc24)CCN(Cc2cccc(-c4nnn[nH]4)c2)C3=O)cc(C)c1Cl` [I-85, 2-(3-(1H-tetrazol-5-yl)benzyl)-10-(3-(4-chloro-3,5-dimethylphenoxy)propyl)-6-(1,3,5-trimethyl-1H-pyrazol-4-yl)-3,4-dihydropyrazino[1,2-a]indol-1(2H)-one], the figure is less than 50 nM.
